The values that follow come from ChEMBL document CHEMBL4308868 (Bioorg Med Chem Lett, 2019).

SMILES strings stand for the structures. Bounds are passed on as bounds.

This experiment has as its target T1, Tyrosinase (Agaricus bisporus, UniProt O42713).
T1 sequence (O42713 whole entry): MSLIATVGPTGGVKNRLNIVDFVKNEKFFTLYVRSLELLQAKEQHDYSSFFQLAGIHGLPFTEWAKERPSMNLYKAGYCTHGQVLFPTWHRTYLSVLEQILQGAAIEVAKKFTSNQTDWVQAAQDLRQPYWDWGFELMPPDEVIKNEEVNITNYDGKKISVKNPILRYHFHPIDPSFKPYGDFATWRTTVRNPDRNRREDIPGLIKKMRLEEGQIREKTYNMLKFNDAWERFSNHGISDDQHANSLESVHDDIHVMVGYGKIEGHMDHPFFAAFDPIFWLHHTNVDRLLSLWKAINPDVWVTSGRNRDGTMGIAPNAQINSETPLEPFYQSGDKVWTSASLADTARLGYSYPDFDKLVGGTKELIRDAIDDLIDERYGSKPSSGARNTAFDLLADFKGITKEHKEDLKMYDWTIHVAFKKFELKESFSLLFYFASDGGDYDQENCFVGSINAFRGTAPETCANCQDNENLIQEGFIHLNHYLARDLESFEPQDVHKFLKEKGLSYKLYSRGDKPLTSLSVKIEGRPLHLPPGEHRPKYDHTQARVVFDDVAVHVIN
Description: Inhibition of mushroom tyrosinase using L-tyrosine as substrate measured after 20 mins by spectrophotometric method
As to `CCOc1cc(C(C)C)c(C(=O)CCC(=O)OCc2ccccc2)cc1C`, the IC50 is greater than 500 µM.
`CCOc1cc(C(C)C)ccc1C` showed an IC50 greater than 500 µM.
In turn, `C/C=C/COC(=O)CCC(=O)c1cc(C(C)C)c(OCC)cc1C` returned an IC50 of 102 µM.
In the case of `CCOc1cc(C(C)C)c(C(=O)CCC(=O)OC)cc1C` it was greater than 500 µM; in that of `CCOc1cc(C)ccc1C(C)C`, greater than 500 µM.
In turn, `CCCOC(=O)CCC(=O)c1cc(C)c(OCC)cc1C(C)C` had an IC50 of 218 µM.
In turn, `CCCCOC(=O)CCC(=O)c1cc(C(C)C)c(OCC)cc1C` yielded an IC50 of 191 µM. The IC50 values of the last two compounds are within 1.5-fold of each other.
As for `C=CCOC(=O)CCC(=O)c1cc(C(C)C)c(OCC)cc1C`, the concentration for half-maximal inhibition (IC50) worked out at 126 µM. Compared with the last compound, the IC50 is about 1.5-fold lower.
As for `CCOc1cc(C)c(C(=O)CCC(=O)OCc2ccccc2)cc1C(C)C`, the IC50 is greater than 500 µM.
Then `CCOc1cc(C)c(C(=O)CCC(=O)OC)cc1C(C)C`, with greater than 500 µM; and `CCCCOC(=O)CCC(=O)c1cc(C)c(OCC)cc1C(C)C`, with 176 µM.
For the compound `CCCOC(=O)CCC(=O)c1cc(C(C)C)c(OCC)cc1C`, the IC50 is 154 µM.
For the compound `CCOC(=O)CCC(=O)c1cc(C(C)C)c(OCC)cc1C`, the IC50 stood at 212 µM.
In turn, `C/C=C/COC(=O)CCC(=O)c1cc(C)c(OCC)cc1C(C)C` yielded a concentration for half-maximal inhibition (IC50) of 244 µM.
`CCOC(=O)CCC(=O)c1cc(C)c(OCC)cc1C(C)C` returned a 50% inhibitory concentration (IC50) greater than 500 µM.
Then `CCOc1cc(C)c(C(=O)CCC(=O)O)cc1C(C)C`, with greater than 500 µM.
Then `CCOc1cc(C(C)C)c(C(=O)CCC(=O)O)cc1C`, with greater than 500 µM.
`Cc1ccc(C(C)C)cc1O` [CARVACROL] returned an IC50 greater than 500 µM.
